Assay results: US8815919B2, “Oxadiazole derivatives” (Merck Serono SA, priority 2009, dated 2014)
Where a name gives a salt, the structure may show the parent alone. Read-outs that look alike come from different tables or passages of the source.

Legend:
[1] = biological target: T1, S1P1 (Homo sapiens, UniProt P21453); assay: Receptor binding assay, [33P]sphingosine 1-phosphate competition, S1P1 membranes, WGA SPA beads
Procedure: (§1) Membranes were prepared from CHO cells expressing S1P1 or S1P3 for use in ligand and […] binding studies. Cells were suspended in 50 mM TRIS, pH 7.4, 2 mM EDTA, 250 mM Sucrose (buffer A) and 1× Complete protease inhibitor cocktail (Roche), and disrupted at 4° C. by N2 decompression using a cell disruption bomb (Parr Instrument). Following centrifugation at 1000 RPM for 10 min at 4° C., the supernatant was diluted (2×) in buffer A and centrifuged again at 19000 RPM for 75 min at 4° C. The pellet was then suspended in 10 mM HEPES, pH 7.4, 1 mM EDTA, 250 mM Sucrose (Buffer B), and 1× Complete EDTA-free protease inhibitor cocktail and homogenized using a potter. Membranes were flash frozen in liquid N2 and stored at −80° C.
(§2) Receptor binding assay: [33P]sphingosine 1-phosphate (3000 Ci/mmol; American Radiolabeled Chemicals, Inc.) was added to test compounds in 20% DMSO by competition. Membranes and WGA SPA beads (GE Healthcare) were added to give a final volume of 100 μl in 96-well plates or 50 μl in 384-well plates with assay concentrations of […] [33P]sphingosine 1-phosphate (respectively for S1P1 or S1P3), 50 mM HEPES, pH 7.5, 5 mM MgCl2, 100 mM NaCl, 0.4% fatty acid-free BSA, 1-5 μg/well of proteins in 96-well plates vs 0.6-1 μg/well of proteins in 384-well plates and 100 μg/well of WGA SPA beads in 96-well plates vs 75 μg/well of WGA SPA beads in 384-well plates. Binding was performed for 60 min at RT on a shaker and bound radioactivity was measured on a PerkinElmer 1450 MicroBeta counter. Triplicate samples were averaged and normalized as percentage of inhibition relative to total binding (only DMSO in well) and nonspecific binding (1000-fold excess of unlabeled S1P). Binding data were analyzed using the GraphPad Prism program or Genedata software.
Target sequence in this assay (P21453 whole entry, species assumed): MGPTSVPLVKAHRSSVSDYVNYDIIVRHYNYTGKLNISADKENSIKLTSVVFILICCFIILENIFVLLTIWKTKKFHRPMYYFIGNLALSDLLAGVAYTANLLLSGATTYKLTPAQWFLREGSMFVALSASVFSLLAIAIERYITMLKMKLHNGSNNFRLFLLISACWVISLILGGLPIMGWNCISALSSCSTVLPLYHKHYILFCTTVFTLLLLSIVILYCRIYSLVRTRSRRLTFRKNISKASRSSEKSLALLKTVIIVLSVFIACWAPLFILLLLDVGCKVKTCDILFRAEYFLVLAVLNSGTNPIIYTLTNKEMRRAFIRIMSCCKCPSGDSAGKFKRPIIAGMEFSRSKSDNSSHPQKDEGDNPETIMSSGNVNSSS

[2] = biological target: S1P3 (Homo sapiens, UniProt Q99500); assay: Receptor binding assay, [33P]sphingosine 1-phosphate competition, S1P3 membranes, WGA SPA beads
Procedure: as §1, §2

[3] = biological target: T1, S1P1; assay: S1P1 internalization assay in S1P1-U2OS cells (S1P1-EGFP), cell imaging; assay type: cell-based; set-up: host or cells: U2OS (human bone osteosarcoma epithelial cells), CMV promoter, geneticin selection; conditions: 1 hour incubation
Procedure: Cellular functional assays: Internalization of Sphingosine-1-phosphate receptor 1 (S1P1) in a human Cell line (U2OS) in a 384-well format using a Cell Imaging analysis. • Jo, E.; Sanna, M. G.; Gonzalez-Cabrera, P. J.; Thangada, S.; Tigyi, S.; Osborne, D. A.; Hla, T.; Parrill, A. L.; Rosen, H. Chem. Biol. 2005, 12, 703
The S1P1 internalization assay was performed in 384 well plates (Corning® 384 black with clear bottom 3712) using S1P1-U2OS cells from Biolmage (C039A), a human epithelial cell line (Human Bone Osteosarcoma Epithelial Cells). These cells expressed the human S1P1 Receptor fused to the green fluorescent protein (EGFP). A standard CMV promoter (cytomegalovirus promoter) controls the expression of S1P1-EGFP and continuous expression was maintained by addition of geneticin to the culture medium.
S1P1 Receptor desensitization induced the internalization of the membrane-localized S1P1-EGFP fusion protein to endosomes, which can be monitored by cell imaging analysis. The cells are plated in low serum medium (Dulbecco's Modified Eagle Medium (DMEM) with Glutamax-1 and high glucose, 1% Penicillin/Streptomycin, 1% Fetal Calf Serum (FCS), 0.5 mg/ml Geneticin) overnight.
The next day, S1P1-U2OS cells are incubated in 20 μl serum free medium (DMEM with Glutamax-1 and high glucose, 0.1% of fatty-acid free Bovin Serum Albumin (BSA), 10 mM, N′-2-Hydroxyethylpiperazine-N′-2 ethanesulphonic acid (HEPES) 1M) for 2 hours at 37° C./5% CO2. The cells are then treated with 4 μl compounds/agonists (6×/3% DMSO) for a total volume of 24 μl, and plates are incubated for 1 hour at 37° C./5% CO2.
S1P1-U2OS cells are fixed with 25 μl Paraformaldehyde 8% and stained with Hoechst 33345 dye (1:1000) for 20 minutes.
They were then washed 3 times with Phosphate Buffered Saline (PBS) and plates are sealed. The internalization of the receptor S1P1-EGFP is measured on Cellomics by calculating the “spot count per object” (“object” corresponds to nuclear and “spot” corresponds to S1P1-EGFP receptor). Internalization data were observed thanks to vHCS View and analyzed using Genedata® software.
Target sequence in this assay (P21453 whole entry): as the sequence (P21453 whole entry, species assumed) above

[4] = 96 well-plate, read-out: S1P1 binding Ki (M) (96 well-plate)
[5] = 384 well-plate, read-out: S1P1 binding Ki (M) (384 well-plate)
[6] = 96 well-plate, read-out: S1P3 binding Ki (M) (96 well-plate)
[7] = 384 well-plate, read-out: S1P3 binding Ki (M) (384 well-plate)

Chain of S1P3 (Q99500 whole entry, species assumed): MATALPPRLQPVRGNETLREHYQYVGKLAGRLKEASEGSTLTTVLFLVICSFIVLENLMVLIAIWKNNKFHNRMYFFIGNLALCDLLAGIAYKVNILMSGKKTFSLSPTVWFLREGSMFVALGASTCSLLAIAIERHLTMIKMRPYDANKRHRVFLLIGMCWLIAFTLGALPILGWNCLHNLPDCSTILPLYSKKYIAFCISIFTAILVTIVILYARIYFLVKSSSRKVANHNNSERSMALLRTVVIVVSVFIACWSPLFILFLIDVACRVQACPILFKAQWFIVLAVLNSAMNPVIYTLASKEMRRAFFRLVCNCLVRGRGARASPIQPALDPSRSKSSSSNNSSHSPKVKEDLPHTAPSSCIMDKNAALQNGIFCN

Structure (SMILES)	Ki [1, 4] [M]	Ki [1, 5] [M]	Ki [2, 6] [M]	Ki [2, 7] [M]	EC50 [3] [nM]
Cc1ccccc1-c1ccc(-c2nc(-c3cccc(COCC(=O)O)c3)no2)cc1C(F)(F)F [Example 48, [(3-{5-[2′-methyl-2-(trifluoromethyl)biphenyl-4-yl]-1,2,4-oxadiazol-3-yl}benzyl)oxy]acetic acid]	9.79e-10	1.97e-09	6.03e-07	1.08e-06	7.12
COCc1cc(-c2nc(-c3ccc(CN(C)CC(=O)O)cc3)no2)ccc1-c1ccccc1C [Example 51, N-(4-{5-[2-(methoxymethyl)-2′-methylbiphenyl-4-yl]-1,2,4-oxadiazol-3-yl}benzyl)-N-methylglycine, hydrochloride salt]	3.38e-10	2.1e-09	7.32e-07	9.17e-07	4.92
COCc1cc(-c2nc(-c3ccc(CN(C)CC(=O)O)c(F)c3)no2)ccc1-c1ccccc1C [Example 52, N-(2-fluoro-4-{5-[2-(methoxymethyl)-2′-methylbiphenyl-4-yl]-1,2,4-oxadiazol-3-yl}benzyl)-N-methylglycine, hydrochloride salt]	1.96e-10	–	1.27e-07	–	2.52
COCc1cc(-c2nc(-c3ccc(CN(C)CC(=O)O)c(Br)c3)no2)ccc1-c1ccccc1C [Example 53, N-(2-bromo-4-{5-[2-(methoxymethyl)-2′-methylbiphenyl-4-yl]-1,2,4-oxadiazol-3-yl}benzyl)-N-methylglycine, hydrochloride salt]	2.14e-10	–	7e-07	–	7.61
COCc1cc(-c2nc(-c3ccc(CN(C)CC(=O)O)cc3)no2)ccc1-c1ccccc1F [Example 54, N-(4-{5-[2′-fluoro-2-(methoxymethyl)biphenyl-4-yl]-1,2,4-oxadiazol-3-yl}benzyl)-N-methylglycine, hydrochloride salt]	3.04e-10	9.76e-10	3.21e-07	2.59e-07	6.36
COCc1cc(-c2nc(-c3ccc(CN(C)CC(=O)O)c(F)c3)no2)ccc1-c1ccccc1F [Example 55, N-(2-fluoro-4-{5-[2′-fluoro-2-(methoxymethyl)biphenyl-4-yl]-1,2,4-oxadiazol-3-yl}benzyl)-N-methylglycine, hydrochloride salt]	1.59e-10	5.23e-10	7.12e-08	9.2e-08	8.46
CC1CCCCN1c1ccc(-c2nc(-c3cc(F)cc(CN(C)CC(=O)O)c3)no2)cc1C(F)(F)F (stereo not drawn) [Example 56, N-(3-fluoro-5-{5-[4-(2-methylpiperidin-1-yl)-3-(trifluoromethyl)phenyl]-1,2,4-oxadiazol-3-yl}benzyl)-N-methylglycine, hydrochloride salt]	3.25e-10	–	3.79e-08	–	20.2
COCc1cc(-c2nc(-c3cc(F)cc(CN(C)CC(=O)O)c3)no2)ccc1-c1ccccc1F [Example 57, N-(3-fluoro-5-{5-[2′-fluoro-2-(methoxymethyl)biphenyl-4-yl]-1,2,4-oxadiazol-3-yl}benzyl)-N-methylglycine, hydrochloride salt]	1.14e-10	–	7.22e-09	–	8.46
COCc1cc(-c2nc(-c3cccc(CN(CC(=O)O)C(C)C)c3)no2)ccc1-c1ccccc1C [Example 58, N-isopropyl-N-(3-{5-[2-(methoxymethyl)-2′-methylbiphenyl-4-yl]-1,2,4-oxadiazol-3-yl}benzyl)glycine, hydrochloride salt]	3.91e-10	–	2.02e-07	–	7.87
COCc1cc(-c2nc(-c3cccc(CN(CC(=O)O)CC(C)C)c3)no2)ccc1-c1ccccc1C [Example 59, N-isobutyl-N-(3-{5-[2-(methoxymethyl)-2′-methylbiphenyl-4-yl]-1,2,4-oxadiazol-3-yl}benzyl)glycine, hydrochloride salt]	1.1e-09	7.94e-09	–	8.49e-07	74.5
COCc1cc(-c2nc(-c3ccc(CNCC(=O)O)cc3)no2)ccc1-c1ccccc1C [Example 60, N-(4-{5-[2-(methoxymethyl)-2′-methylbiphenyl-4-yl]-1,2,4-oxadiazol-3-yl}benzyl)glycine, hydrochloride salt]	3.09e-10	–	1.93e-07	–	1.78
COCc1cc(-c2nc(-c3ccc(CNCC(=O)O)cc3)no2)ccc1-c1ccccc1F [Example 61, N-(4-{5-[2′-fluoro-2-(methoxymethyl)biphenyl-4-yl]-1,2,4-oxadiazol-3-yl}benzyl)glycine, hydrochloride salt]	2.26e-10	–	1.91e-07	–	3.36
CCN(CCC(=O)O)Cc1cccc(-c2noc(-c3ccc(-c4ccccc4F)c(COC)c3)n2)c1 [Example 62, N-ethyl-N-(3-{5-[2′-fluoro-2-(methoxymethyl)biphenyl-4-yl]-1,2,4-oxadiazol-3-yl}benzyl)-beta-alanine, hydrochloride salt]	1.68e-10	–	1.72e-08	–	2.91
CCN(CCC(=O)O)Cc1cccc(-c2noc(-c3ccc(-c4ccccc4C)c(COC)c3)n2)c1 [Example 63, N-ethyl-N-(3-{5-[2-(methoxymethyl)-2′-methylbiphenyl-4-yl]-1,2,4-oxadiazol-3-yl}benzyl)-beta-alanine, hydrochloride salt]	1.61e-10	–	3.98e-08	1.25e-07	3.38
COCc1cc(-c2nc(-c3cccc(CN(C)CC(=O)O)c3)no2)ccc1-c1cc(F)ccc1Cl [Example 65, N-(3-{5-[2′-chloro-5′-fluoro-2-(methoxymethyl)biphenyl-4-yl]-1,2,4-oxadiazol-3-yl}benzyl)-N-methylglycine, hydrochloride salt]	5.31e-10	–	2.31e-07	3.68e-07	21.8
COCc1cc(-c2nc(-c3cccc(CN(CCO)CCC(=O)O)c3)no2)ccc1-c1ccccc1C [Example 66, N-(2-hydroxyethyl)-N-(3-{5-[2-(methoxymethyl)-2′-methylbiphenyl-4-yl]-1,2,4-oxadiazol-3-yl}benzyl)-beta-alanine, hydrochloride salt]	5.36e-10	2.42e-09	–	1.4e-06	44.9
COCc1cc(-c2nc(-c3ccc(CN(C)CCC(=O)O)c(F)c3)no2)ccc1-c1ccccc1C [Example 73, N-(2-fluoro-4-{5-[2-(methoxymethyl)-2′-methylbiphenyl-4-yl]-1,2,4-oxadiazol-3-yl}benzyl)-N-methyl-beta-alanine, hydrochloride salt]	1.07e-10	–	4.95e-08	–	1.27
COCc1cc(-c2nc(-c3ccc(CN(C)CCC(=O)O)cc3)no2)ccc1-c1ccccc1C [Example 74, N-(4-{5-[2-(methoxymethyl)-2′-methylbiphenyl-4-yl]-1,2,4-oxadiazol-3-yl}benzyl)-N-methyl-beta-alanine, hydrochloride salt]	2.01e-10	–	1.08e-07	–	1.46
